US9751845B2, “5-HT2B antagonists” (National Institute of Biological Sciences, Beijing, priority 2014, dated 2017)

Target: T1, 5-HT2B Receptors (Homo sapiens, UniProt P41595)
T1 construct: expressed in transfected cells
Test: Antagonist activity assay (FLIPR, CHO-K1/5-HT2B stable cell line)
Assay type: cell-based
Settings: for inhibition at 1 µM: 1 μM compound, CHO-K1/5-HT2B cells stimulated with 12 nM (EC80) 5-HT; for IC50: CHO-K1/5-HT2B cells, antagonist mode vs EC80 5-HT
Procedure: Briefly, CHO-K1 cells expressing 5-HT2B were seeded in a 384-well black-wall, clear-bottom plate at a density of 20,000 cells per well in 20 μL of growth medium (10% dialyzed FBS+90% F12), 18 hours prior to the day of experiment and maintained at 37° C./5% CO2. 20 μL of dye-loading solution and 10 μL of tested compound solution (at concentrations five times to the final assay concentrations) were added into the well. Then the plate was placed into a 37° C. incubator for 60 minutes, followed by 15 minutes at room temperature. At last, 12.5 μL of control agonist (at concentrations five times to the EC80 concentrations) was added. The control agonist was added to reading plate at 20 s and the fluorescence signal was monitored for an additional 100 s (21 s to 120 s). In screening, cells stimulated with assay buffer (HBSS-HEPES) containing 0.1% DMSO were chosen as background; cell stimulated with 12 nM (EC80 of the cell line) of 5-HT were chosen as the agonist control; cell treated with SB206553 were chosen as positive control of the screening.
Data acquisition and analyses are performed using ScreenWorks (version 3.1) program. The average fluorescent intensity value during 1 s to 20 s calculated as the baseline reading. The relative fluorescent units (ΔRFU) intensity values were calculated with the maximal fluorescent units (21 s to 120 s) subtracting the average value of baseline reading. The % inhibition of the test article is calculated from the following equation: % inhibition=[1−(ΔRFUCompound−ΔRFUBackground)/(ΔRFUAgonist control−ΔRFUBackground)]*100

T1 sequence (P41595 whole entry): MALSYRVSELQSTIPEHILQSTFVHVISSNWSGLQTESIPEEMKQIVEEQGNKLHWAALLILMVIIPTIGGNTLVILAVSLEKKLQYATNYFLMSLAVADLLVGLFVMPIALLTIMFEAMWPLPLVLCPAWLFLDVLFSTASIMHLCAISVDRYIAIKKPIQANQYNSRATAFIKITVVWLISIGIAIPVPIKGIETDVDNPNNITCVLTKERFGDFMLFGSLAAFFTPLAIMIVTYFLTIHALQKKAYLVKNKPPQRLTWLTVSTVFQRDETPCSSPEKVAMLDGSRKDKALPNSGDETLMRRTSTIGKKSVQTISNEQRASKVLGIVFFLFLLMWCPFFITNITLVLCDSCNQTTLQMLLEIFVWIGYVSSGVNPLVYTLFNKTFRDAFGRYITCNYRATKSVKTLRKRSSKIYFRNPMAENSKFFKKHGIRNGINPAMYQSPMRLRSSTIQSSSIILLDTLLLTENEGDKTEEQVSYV

| SMILES | inhibition at 1 µM [%] | IC50 [nM] |
| --- | --- | --- |
| NC1=NC2(CCCCC2)NC(Nc2ccc(F)c(F)c2)=N1 [3-r] | 66.5 ± 2.1 |  |
| CCCC(=O)c1cccc(NC2=NC(N)=NC3(CCCCC3)N2)c1 [3-z] | 106 ± 0.8 | 35.8 |
| CCCOC(=O)c1cccc(NC2=NC(N)=NC3(CCCCC3)N2)c1 [3-k] | 110 ± 2.7 | 18.1 |
| CCOC(=O)c1cccc(NC2=NC(N(C)C)=NC3(CCCCC3)N2)c1 [3-y] | 91.8 ± 0.4 | 284 |
| COc1ccccc1NC1=NC(N)=NC2(CCCCC2)N1 [3-c] | < 50 |  |
| NC1=NC2(CCCCC2)NC(Nc2cccc(I)c2)=N1 [3-f] | 102 ± 4.5 |  |
| CCOC(=O)c1cccc(NC2=NC(N)=NC3(CCCCC3)N2)c1 [3-i] | 107.2 ± 0.6 | 27.3 |
| CCOC(=O)c1cc(NC2=NC(N)=NC3(CCCCC3)N2)cc(Br)c1C [3-w] | 92.8 ± 3.1 |  |
| CC1(C)N=C(N)N=C(Nc2cccc(Br)c2)N1 [1-c] | 75.9 ± 11.5 | 328 |
| CCN(CC)C(=O)c1cccc(NC2=NC(N)=NC3(CCCCC3)N2)c1 [3-l] | < 50 |  |
| CCOC(=O)c1cccc(NC2=NC(NC)=NC3(CCCCC3)N2)c1 [3-x, ethyl 3-(4-(methylamino)-1,3,5-triazaspiro[5.5]undeca-2,4-dien-2-ylamino)benzoate] | 108 | 49.4 |
| CC1(C)N=C(N)N=C(Nc2ccc(Br)cc2)N1 [1-e] | < 50 |  |
| Cc1cc(C)cc(NC2=NC(N)=NC3(CCCCC3)N2)c1 [3-t] | 69.1 ± 2.7 | 476 |
| NC1=NC2(CCCCC2)NC(Nc2ccc(Cl)cc2)=N1 [3-n] | 57.2 ± 5.4 | 531 |
| CCOc1ccc(NC2=NC(N)=NC(C)(C)N2)cc1 [1-g] | < 50 |  |
| CC1(C)N=C(N)N=C(Nc2ccc(Cl)cc2)N1 [1-d] | 93.1 ± 4.2 | 1640 |
| COc1ccccc1NC1=NC(N)=NC(C)(C)N1 [1-b] | < 50 |  |
| Cc1ccc(NC2=NC(N)=NC3(CCCCC3)N2)cc1 [3-m] | 50.2 ± 8 | 486 |
| NC1=NC2(CCCCC2)NC(Nc2ccccc2)=N1 [3-a] | < 50 |  |
| NC1=NC2(CCCCC2)NC(Nc2cccc(Br)c2)=N1 [3-e2] | 97.4 ± 2.2 | 33.4 |
| CC1(C)N=C(N)N=C(Nc2ccccc2)N1 [1-a] | < 50 |  |
| COc1ccc(OC)c(NC2=NC(N)=NC3(CCCCC3)N2)c1 [3-u] | 81.1 ± 6.7 | 622 |
| NC1=NC2(CCCCC2)NC(Nc2cccc(F)c2)=N1 [3-d] | 90.9 ± 2.9 |  |

Continued, values first:

| inhibition at 1 µM [%] | IC50 [nM] | SMILES |
| --- | --- | --- |
| 63.4 ± 15.1 | 1060 | COc1cccc(NC2=NC(N)=NC3(CCCC3)N2)c1 [2-a] |
| 109 ± 4.2 |  | CCOC(=O)c1ccc(NC2=NC(N)=NC3(CCCCC3)N2)cc1 [3-p] |
| 84.6 ± 1.2 | 280 | COc1cccc(NC2=NC(N)=NC3(CCCCC3)N2)c1 [3-g] |
| < 50 | 2510 | CC1(C)N=C(N)N=C(Nc2ccc(I)cc2)N1 [1-f] |
| < 50 |  | Cc1cccc(NC2=NC(N)=NC3(CCCC3)N2)c1 [1-i] |
| ~95.5 |  | NC1=NC2(CCCCC2)NC(Nc2cccc(Cl)c2)=N1 [3-e1] |
| 108 ± 1.5 |  | CCOC(=O)c1cc(NC2=NC(N)=NC3(CCCCC3)N2)ccc1C [3-v] |
| 95.7 ± 1.9 | 177 | Cc1ccc(NC2=NC(N)=NC3(CCCCC3)N2)cc1C [3-s] |
| < 50 |  | NC1=NC2(CCCCC2)NC(Nc2cccc(C(=O)O)c2)=N1 [3-h] |
| 95.5 ± 4.8 | 104 | CCNC(=O)c1cccc(NC2=NC(N)=NC3(CCCCC3)N2)c1 [3-j, 3-(4-amino-1,3,5-triazaspiro[5.5]undeca-2,4-dien-2-ylamino)-N-ethylbenzamide] |
| < 50 |  | Cc1cccc(C)c1NC1=NC(N)=NC2(CCCC2)N1 [2-d] |
| < 50 |  | NC1=NC2(CCCC2)NC(Nc2ccc(F)cc2)=N1 [2-b] |
| < 50 |  | COc1ccccc1NC1=NC(N)=NC2(CCCC2)N1 [1-h] |
| < 50 |  | Cc1ccc(C)c(NC2=NC(N)=NC3(CCCC3)N2)c1 [2-c] |
| < 50 |  | CN(C)c1ccc(NC2=NC(N)=NC3(CCCCC3)N2)cc1 [3-o] |
| < 50 |  | Cc1ccccc1NC1=NC(N)=NC2(CCCCC2)N1 [3-b] |
| < 50 |  | NC1=NC2(CCCCC2)NC(Nc2ccc(F)cc2F)=N1 [3-q] |
